Measured values published in patent publication US20230348418A1, “ISOINDOLINONE COMPOUNDS” (Monte Rosa Therapeutics, Inc., priority 2021, published 2023).
pIC50: −log10 of the molar value. Like-named read-outs stand apart in the source and are kept apart here.

Target: T1, Full length wild-type cereblon CRBN (Homo sapiens, UniProt Q96SW2)
T1 construct: Full length wild-type cereblon CRBN (80.0 nM, 10 μL) was incubated in assay buffer
Test: Fluorescence polarization (FP) assay, cereblon binding
Conditions: for IC50: rFP IC50 [nM]
Text: Compound activity was monitored in a fluorescence polarization (FP) homogeneous assay using 1-[5-({2-[2-(2-{[2-(2,6-dioxopiperidin-3-yl)-1,3-dioxo-2,3-dihydro-1H-isoindol-4-yl]oxy}acetamido)ethoxy]ethyl}carbamoyl)pentyl]-3,3-dimethyl-2-[(1E,3E)-5-[(2E)-1,3,3-trimethyl-5-sulfo-2,3-dihydro-1H-indol-2-ylidene]penta-1,3-dien-1-yl]-3H-indol-1-ium-5-sulfonate as a fluorescent probe. Unless otherwise stated, all reagents were purchased from Sigma Aldrich. […] Full length wild-type cereblon CRBN (80.0 nM, 10 μL) was incubated in assay buffer containing 20 mM HEPES (pH 8.0), […], 0.5 mM TCEP and 0.05% Tween 20 in the presence or absence of compound (300 nL). Inhibitors were stored as 10 mM DMSO stocks in an inert environment (low humidity, dark, low oxygen, room temperature) using the Storage Pod System. […] Following incubation at room temperature for 30 min, the assay was initiated by dispensing the probe to a final concentration of […] (2.5 nL of a 20 μM stock) using the Echo E5XX. […] The FP signal was subsequently normalized to the no-compound control (i.e., DMSO). Analysis and IC50 values were derived using Dotmatics (Dotmatics UK) software.

[1] = bounds stated in the text lists b2059-b2061, read-out: IC50 value
[2] = cereblon binding, class code, read-out: rFP IC50
[3] = IC50 value, bounds stated in the text lists b2059-b2061

T1 sequence (Q96SW2 whole entry): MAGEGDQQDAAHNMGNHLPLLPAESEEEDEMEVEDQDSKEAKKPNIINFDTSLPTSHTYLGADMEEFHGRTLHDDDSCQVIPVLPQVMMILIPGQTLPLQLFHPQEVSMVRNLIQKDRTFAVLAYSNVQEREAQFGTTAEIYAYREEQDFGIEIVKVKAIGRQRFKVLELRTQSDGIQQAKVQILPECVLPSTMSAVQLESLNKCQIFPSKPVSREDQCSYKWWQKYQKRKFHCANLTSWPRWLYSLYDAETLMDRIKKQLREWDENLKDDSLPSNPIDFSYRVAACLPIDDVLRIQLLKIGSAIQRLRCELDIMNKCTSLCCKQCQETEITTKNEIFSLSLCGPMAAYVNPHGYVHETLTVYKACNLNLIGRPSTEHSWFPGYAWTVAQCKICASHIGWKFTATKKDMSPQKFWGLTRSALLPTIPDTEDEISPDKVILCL

SMILES	pIC50 [1]	pIC50 [2]	pIC50 [3]	IC50 (cereblon binding, class code) [nM]
Cc1c(Cl)cc(NC(=O)OCc2ccc3c(c2)C(=O)N(C2CCC(=O)NC2=O)C3)cc1OCC1CCN(C)C1 (centres unmarked) [Compound 70]	> 5.96			
O=C1CCC(N2Cc3ccc(COC(=O)Nc4ccc(C5CC5)nc4)cc3C2=O)C(=O)N1 (centres unmarked) [Compound 80]	> 5.96			
Cc1cc(NC(=O)OCc2ccc3c(c2)C(=O)N(C2CCC(=O)NC2=O)C3)cc(C)n1 (centres unmarked) [Compound 7]	> 5.77	5.96 to 6.30		
O=C1CCC(N2Cc3ccc(COC(=O)NCc4ccccc4)cc3C2=O)C(=O)N1 (centres unmarked) [Compound 98]	> 5.77	5.96 to 6.30		
CC1(C)COc2cc(NC(=O)OCc3ccc4c(c3)C(=O)N(C3CCC(=O)NC3=O)C4)ccc21 (centres unmarked) [Compound 83]	> 5.77	5.96 to 6.30		
O=C1CCC(N2Cc3ccc(COC(=O)Nc4ccnc(-c5ccccc5)c4)cc3C2=O)C(=O)N1 (centres unmarked) [Compound 149]			> 5.96	
CN1CCN(c2ccc(NC(=O)OCc3ccc4c(c3)C(=O)N(C3CCC(=O)NC3=O)C4)cn2)CC1 (centres unmarked) [Compound 82]	> 5.96			
O=C1CCC(N2Cc3ccc(COC(=O)Nc4ccc5c(c4)CCO5)cc3C2=O)C(=O)N1 (centres unmarked) [Compound 66]	> 5.96			
O=C1CCC(N2Cc3ccc(COC(=O)Nc4ccc(F)c(Cl)c4)cc3C2=O)C(=O)N1 (centres unmarked) [Compound 9]	> 5.77	5.77 to 5.96		
O=C1CCC(N2Cc3ccc(COC(=O)Nc4ccc(N5CCOCC5)nc4)cc3C2=O)C(=O)N1 (centres unmarked) [Compound 76]	> 5.77	5.96 to 6.30		
O=C1CCC(N2Cc3ccc(COC(=O)NC4CCCC4)cc3C2=O)C(=O)N1 (centres unmarked) [Compound 29]	> 5.77	5.96 to 6.30		
O=C1CCC(N2Cc3ccc(COC(=O)Nc4cc(OCCN5CCOCC5)cc(OC(F)F)c4)cc3C2=O)C(=O)N1 (centres unmarked) [Compound 96]	> 5.77	5.77 to 5.96		
CC(C)(C)c1ccc(NC(=O)OCc2ccc3c(c2)C(=O)N(C2CCC(=O)NC2=O)C3)nc1 (centres unmarked) [Compound 131, (2-(2,6-dioxopiperidin-3-yl)-3-oxoisoindolin-5-yl)methyl (5-(tert-butyl)pyridin-2-yl)carbamate]	> 5.96	5.96 to 6.30		
O=C1CCC(N2Cc3ccc(COC(=O)Nc4ccc5c(c4)CCCO5)cc3C2=O)C(=O)N1 (centres unmarked) [Compound 67]	> 5.77	5.96 to 6.30		
Cc1c(F)cc(NC(=O)OCc2ccc3c(c2)C(=O)N(C2CCC(=O)NC2=O)C3)cc1CN1CCOCC1 (centres unmarked) [Compound 41]	> 5.77	5.96 to 6.30		
O=C1CCC(N2Cc3ccc(COC(=O)Nc4cccc(OC5CC5)c4)cc3C2=O)C(=O)N1 (centres unmarked) [Compound 93]	> 5.77	5.96 to 6.30		
CC1CCCCN1c1ccc(NC(=O)OCc2ccc3c(c2)C(=O)N(C2CCC(=O)NC2=O)C3)cn1 (centres unmarked) [Compound 77]	> 5.77	5.96 to 6.30		
O=C1CCC(N2Cc3ccc(COC(=O)Nc4cc(CN5CC6CC5CO6)cc(OC(F)F)c4)cc3C2=O)C(=O)N1 (centres unmarked) [Compound 100]	> 5.77	5.96 to 6.30		
CC(C)(C)C12CC(NC(=O)OCc3ccc4c(c3)C(=O)N(C3CCC(=O)NC3=O)C4)(C1)C2 (centres unmarked) [Compound 120, (2-(2,6-dioxopiperidin-3-yl)-3-oxoisoindolin-5-yl)methyl (3-(tert-butyl)bicyclo[1.1.1]pentan-1-yl)carbamate]	> 5.96	5.96 to 6.30		
O=C1CCC(N2Cc3ccc(COC(=O)Nc4cc(OC(F)(F)F)ccn4)cc3C2=O)C(=O)N1 (centres unmarked) [Compound 59]	> 5.96			

SMILES	pIC50 [1]	pIC50 [2]	pIC50 [3]	IC50 (cereblon binding, class code) [nM]
O=C1CCC(N2Cc3ccc(COC(=O)Nc4ccc5c(c4)OCCC5)cc3C2=O)C(=O)N1 (centres unmarked) [Compound 92]	> 5.77	5.96 to 6.30		
Cc1c(CN2CCOCC2)cc(NC(=O)OCc2ccc3c(c2)C(=O)N(C2CCC(=O)NC2=O)C3)cc1OC(F)F (centres unmarked) [Compound 25]	> 5.77	5.96 to 6.30		
COc1ccccc1-c1ccc(NC(=O)OCc2ccc3c(c2)C(=O)N(C2CCC(=O)NC2=O)C3)cn1 (centres unmarked) [Compound 87]	> 5.77	5.96 to 6.30		
COc1ccccc1CNC(=O)OCc1ccc2c(c1)C(=O)N(C1CCC(=O)NC1=O)C2 (centres unmarked) [Compound 97]	> 5.77	5.96 to 6.30		
Cc1cc(Cl)cc(NC(=O)OCc2ccc3c(c2)C(=O)N(C2CCC(=O)NC2=O)C3)c1 (centres unmarked) [Compound 144, (2-(2,6-dioxopiperidin-3-yl)-3-oxoisoindolin-5-yl)methyl (3-chloro-5-methylphenyl)carbamate]	> 5.77	5.77 to 5.96		
CC(C)(C)c1ccc(NC(=O)OCc2ccc3c(c2)C(=O)N(C2CCC(=O)NC2=O)C3)c(F)c1 (centres unmarked) [Compound 142, (2-(2,6-dioxopiperidin-3-yl)-3-oxoisoindolin-5-yl)methyl (4-(tert-butyl)-2-fluorophenyl)carbamate]	> 5.96	5.96 to 6.30		
O=C1CCC(N2Cc3ccc(COC(=O)Nc4ccccc4)cc3C2=O)C(=O)N1 (centres unmarked) [Compound 138, (2-(2,6-dioxopiperidin-3-yl)-3-oxoisoindolin-5-yl)methyl phenylcarbamate]	> 5.96	5.96 to 6.30		
O=C1CCC(N2Cc3ccc(COC(=O)NC45CC(c6ccccc6)(C4)C5)cc3C2=O)C(=O)N1 (centres unmarked) [Compound 126, (2-(2,6-dioxopiperidin-3-yl)-3-oxoisoindolin-5-yl)methyl (3-phenylbicyclo[1.1.1]pentan-1-yl carbamate]	> 5.96			
O=C1CCC(N2Cc3ccc(COC(=O)Nc4cc(Cl)cc(OC5CCNC5)c4)cc3C2=O)C(=O)N1 (centres unmarked) [Compound 20]	> 5.77	5.77 to 5.96		
O=C1CCC(N2Cc3ccc(COC(=O)Nc4cc(CN5CCOCC5)cc(OC(F)(F)F)c4)cc3C2=O)C(=O)N1 (centres unmarked) [Compound 4]	> 5.77	5.96 to 6.30		
CC1(c2ccc(NC(=O)OCc3ccc4c(c3)C(=O)N(C3CCC(=O)NC3=O)C4)cc2)CC1 (centres unmarked) [Compound 58]	> 5.77	5.96 to 6.30		
Cc1c(Cl)cc(NC(=O)OCc2ccc3c(c2)C(=O)N(C2CCC(=O)NC2=O)C3)cc1CN1CC2CC1CO2 (centres unmarked) [Compound 13]	> 5.77	5.96 to 6.30		
Cc1c(Cl)cc(NC(=O)OCc2ccc3c(c2)C(=O)N(C2CCC(=O)NC2=O)C3)cc1OC1CCNC1 (centres unmarked) [Compound 44]	> 5.77	5.96 to 6.30		
O=C1CCC(N2Cc3ccc(COC(=O)Nc4cc(C(F)(F)F)ns4)cc3C2=O)C(=O)N1 (centres unmarked) [Compound 139]			> 5.96	500 to 1100
Cc1cc(Cl)c(NC(=O)OCc2ccc3c(c2)C(=O)N(C2CCC(=O)NC2=O)C3)cc1Cl (centres unmarked) [Compound 119]			> 5.96	500 to 1100
Cc1cc(NC(=O)OCc2ccc3c(c2)C(=O)N(C2CCC(=O)NC2=O)C3)cc(C)c1F (centres unmarked) [Compound 124, (2-(2,6-dioxopiperidin-3-yl)-3-oxoisoindolin-5-yl)methyl (4-fluoro-3,5-dimethylphenyl)carbamate]	> 5.96			
Cc1ccc(OC(F)(F)F)cc1NC(=O)OCc1ccc2c(c1)C(=O)N(C1CCC(=O)NC1=O)C2 (centres unmarked) [Compound 128]			> 5.96	500 to 1100
Cc1cc(NC(=O)OCc2ccc3c(c2)C(=O)N(C2CCC(=O)NC2=O)C3)cc(C(C)(C)C)n1 (centres unmarked) [Compound 118]			> 5.96	500 to 1100
O=C1CCC(N2Cc3ccc(COC(=O)Nc4ccc(N5CCCC5)nc4)cc3C2=O)C(=O)N1 (centres unmarked) [Compound 60]	> 5.96			
O=C1CCC(N2Cc3ccc(COC(=O)Nc4ccc5c(c4)OC(F)(F)O5)cc3C2=O)C(=O)N1 (centres unmarked) [Compound 79]	> 5.77	5.77 to 5.96		
